Structures can show the parent of a compound that is named as a salt. Where two headings read alike, the source gives them in different places.
Tested on: PMS1
Test: Mini-gene reporter assay-PMS1
Assay type: cell-based
Conditions: Homo sapiens
Procedure, shortened: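 HEK293 cells transiently transfected with a mini-gene construct: skipped exon with flanking introns and exons fused to firefly luciferase in pcDNA3.1, so exon inclusion raises luciferase signal. Compounds tested in duplicate dilutions, luminescence read after incubation, EC50 fitted by Levenberg-Marquardt.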

[1] = HEK293, PMS1 mini-gene firefly luciferase reporter transiently transfected into HEK293 cells, read-out: PMS1 IC50

IC50 [1] [nM]	SMILES	other results
> 3000	CCOc1nc(N2CCC(NC)C2)ncc1C(=O)Nc1cnc2nn(C)cc2c1 (stereo not shown) [Compound 276, 4-ethoxy-N-(2-methyl-2H-pyrazolo[3,4-b]pyridin-5-yl)-2-(3-(methylamino)pyrrolidin-1-yl)pyrimidine-5-carboxamide formate]	
< 500	CCOc1nc(N2CC[C@H](NC)C2)ncc1C(=O)Nc1cc(F)c2nn(C)cc2c1 [Compound 277, (S)-4-ethoxy-N-(7-fluoro-2-methyl-2H-indazol-5-yl)-2-(3-(methylamino)pyrrolidin-1-yl)pyrimidine-5-carboxamide 4-methylbenzenesulfinate]	
< 500	CCOc1nc(N2CCC(NC)C2)ncc1C(=O)Nc1cc(OC)c2nn(C)cc2c1 (stereo not shown) [Compound 278, 4-ethoxy-N-(7-methoxy-2-methyl-2H-indazol-5-yl)-2-(3-(methylamino)pyrrolidin-1-yl)pyrimidine-5-carboxamide formate]	
< 500	CCOc1nc(N2CCN[C@@H](C)C2)ncc1C(=O)Nc1cc(F)c2nn(C)cc2c1 [Compound 279, (S)-4-ethoxy-N-(7-fluoro-2-methyl-2H-indazol-5-yl)-2-(3-methylpiperazin-1-yl)pyrimidine-5-carboxamide formate]	
1000 to 3000	CCOc1nc(N2C[C@@H](C)N[C@@H](C)C2)ncc1C(=O)Nc1cc(F)c2nn(C)cc2c1 [Compound 280, 2-((3R,5S)-3,5-dimethylpiperazin-1-yl)-4-ethoxy-N-(7-fluoro-2-methyl-2H-indazol-5-yl)pyrimidine-5-carboxamide 4-methylbenzenesulfonate]	
	COc1nc(N(C)C2CCNCC2)ncc1C(=O)Nc1cc(F)c2nn(C)cc2c1 [Compound 281, N-(7-fluoro-2-methyl-2H-indazol-5-yl)-4-methoxy-2-(methyl(piperidin-4-yl)amino) pyrimidine-5-carboxamide formate]	activation at 5 µM (at 5 μM, PMS1 mini-gene firefly luciferase reporter in HEK293 cells, read-out: PMS1% Effect at 5 μM): > 75%
< 500	CCOc1nc(N2CC[C@@H](NC)C2)ncc1C(=O)Nc1cc(F)c2nn(C)cc2c1 [Compound 282, (R)-4-ethoxy-N-(7-fluoro-2-methyl-2H-indazol-5-yl)-2-(3-(methylamino)pyrrolidin-1-yl)pyrimidine-5-carboxamide formate]	
< 500	CCOc1nc(N2CCC(NC)C2)ncc1C(=O)Nc1cc(OC)c2nc(C)cn2c1 (stereo not shown) [Compound 283, 4-ethoxy-N-(8-methoxy-2-methylimidazo[1,2-a]pyridin-6-yl)-2-(3-(methylamino)pyrrolidin-1-yl)pyrimidine-5-carboxamide formate]	
1000 to 3000	CCOc1nc(N2CC[C@H](NC)C2)ncc1C(=O)Nc1ccc2nn(C)cc2c1 [Compound 285, (S)-4-ethoxy-N-(2-methyl-2H-indazol-5-yl)-2-(3-(methylamino)pyrrolidin-1-yl)pyrimidine-5-carboxamide 2,2,2-trifluoroacetate]	
500 to 1000	CCOc1nc(N2CC[C@@H](NC)C2)ncc1C(=O)Nc1ccc2nn(C)cc2c1 [Compound 286, (R)-4-ethoxy-N-(2-methyl-2H-indazol-5-yl)-2-(3-(methylamino)pyrrolidin-1-yl)pyrimidine-5-carboxamide formate]	
1000 to 3000	CCOc1nc(N2CCC(NC)C2)ncc1C(=O)Nc1cnc2nc(C)cn2c1 (stereo not shown) [Compound 287, 4-ethoxy-2-(3-(methylamino)pyrrolidin-1-yl)-N-(2-methylimidazo[1,2-a]pyrimidin-6-yl)pyrimidine-5-carboxamide fomate]	
	CCOc1nc(N(CC)C2CCNCC2)ncc1C(=O)Nc1ccn2nc(C)cc2c1 [Compound 288, 4-ethoxy-2-(ethyl(piperidin-4-yl)amino)-N-(2-methylpyrazolo[1,5-a]pyridin-5-yl)pyrimidine-5-carboxamide formate]	IC50 (HEK293, read-out: PMS1 IC50 (nM)): 500 to 1000 nM
1000 to 3000	CCOc1nc(N2CC[C@@H](NC)C2)ncc1C(=O)Nc1ccc2nc(C)cn2c1 [Compound 289, (R)-4-ethoxy-2-(3-(methylamino)pyrrolidin-1-yl)-N-(2-methylimidazo[1,2-a]pyridin-6-yl)pyrimidine-5-carboxamide formate]	
1000 to 3000	CCOc1nc(N2CC[C@@H](N(C)C)C2)ncc1C(=O)Nc1cc(F)c2nc(C)cn2c1 [Compound 290, (R)-2-(3-(dimethylamino)pyrrolidin-1-yl)-4-ethoxy-N-(8-fluoro-2-methylimidazo[1,2-a]pyridin-6-yl)pyrimidine-5-carboxamide 4-methylbenzenesulfonate]	
> 3000	CCOc1nc(N2CC[C@H](N(C)C)C2)ncc1C(=O)Nc1cc(F)c2nn(C)cc2c1 [Compound 291, (S)-2-(3-(dimethylamino)pyrrolidin-1-yl)-4-ethoxy-N-(7-fluoro-2-methyl-2H-indazol-5-yl)pyrimidine-5-carboxamide formate]	
1000 to 3000	CCOc1nc(N2CC[C@@H](N(C)C)C2)ncc1C(=O)Nc1cc(F)c2nn(C)cc2c1 [Compound 292, (R)-2-(3-(dimethylamino)pyrrolidin-1-yl)-4-ethoxy-N-(7-fluoro-2-methyl-2H-indazol-5-yl)pyrimidine-5-carboxamide formate]	
> 3000	CCOc1nc(N2CC[C@H](NC)C2)ncc1C(=O)Nc1ccc2nc(C)cn2c1 [Compound 293, (S)-4-ethoxy-2-(3-(methylamino)pyrrolidin-1-yl)-N-(2-methylimidazo[1,2-a]pyridin-6-yl)pyrimidine-5-carboxamide formate]	
> 3000	CCOc1nc(N2CC[C@H](N(C)C)C2)ncc1C(=O)Nc1cc(F)c2nc(C)cn2c1 [Compound 294, (S)-2-(3-(dimethylamino)pyrrolidin-1-yl)-4-ethoxy-N-(8-fluoro-2-methylimidazo[1,2-a]pyridin-6-yl)pyrimidine-5-carboxamide formate]	
500 to 1000	CCOc1nc(N2CC[C@@H](NC)C2)ncc1C(=O)Nc1cc(OC)c2nn(C)cc2c1 [Compound 295, (R)-4-ethoxy-N-(7-methoxy-2-methyl-2H-indazol-5-yl)-2-(3-(methylamino)pyrrolidin-1-yl)pyrimidine-5-carboxamide 4-methylbenzenesulfonate]	
> 3000	CCOc1nc(N2CCNC3(CC3)C2)ncc1C(=O)Nc1cc(F)c2nc(C)cn2c1 [Compound 296, 4-ethoxy-N-(8-fluoro-2-methylimidazo[1,2-a]pyridin-6-yl)-2-(4,7-diazaspiro[2.5]octan-7-yl)pyrimidine-5-carboxamide 2,2,2-trifluoroacetate]	
< 500	CCOc1nc(N2CC[C@H](CNC)C2)ncc1C(=O)Nc1cc(F)c2nc(C)cn2c1 [Compound 297, (R)-4-ethoxy-N-(8-fluoro-2-methylimidazo[1,2-a]pyridin-6-yl)-2-(3-((methylamino)methyl)pyrrolidin-1-yl)pyrimidine-5-carboxamide 4-methylbenzenesulfonate]	
1000 to 3000	CCOc1nc(N2CC[C@H](NC)C2)ncc1C(=O)Nc1cc(OC)c2nn(C)cc2c1 [Compound 298, (S)-4-ethoxy-N-(7-methoxy-2-methyl-2H-indazol-5-yl)-2-(3-(methylamino)pyrrolidin-1-yl)pyrimidine-5-carboxamide 4-methylbenzenesulfonate]	
> 3000	CCOc1nc(N2CCNC3(CC3)C2)ncc1C(=O)Nc1cc(F)c2nn(C)cc2c1 [Compound 299, 4-ethoxy-N-(7-fluoro-2-methyl-2H-indazol-5-yl)-2-(4,7-diazaspiro[2.5]octan-7-yl)pyrimidine-5-carboxamide formate]	
1000 to 3000	CCOc1nc(N2CCC(CN(C)C)CC2)ncc1C(=O)Nc1cc(F)c2nc(C)cn2c1 [Compound 300, 2-(4-((dimethylamino)methyl)piperidin-1-yl)-4-ethoxy-N-(8-fluoro-2-methylimidazo[1,2-a]pyridin-6-yl)pyrimidine-5-carboxamide formate]	
1000 to 3000	CCCOc1nc(N2CCNCC2)ncc1C(=O)Nc1cc(F)c2nn(C)cc2c1 [Compound 301, N-(7-fluoro-2-methyl-2H-indazol-5-yl)-2-(piperazin-1-yl)-4-propoxypyrimidine-5-carboxamide]	
> 3000	Cn1cc2cc(NC(=O)c3cnc(N4CCNCC4)nc3OCC(F)F)cc(F)c2n1 [Compound 302, 4-(2,2-difluoroethoxy)-N-(7-fluoro-2-methyl-2H-indazol-5-yl)-2-(piperazin-1-yl)pyrimidine-5-carboxamide]	
500 to 1000	CCOc1nc(N2CCC3(CC2)CN(C)C3)ncc1C(=O)Nc1cc(F)c2nc(C)cn2c1 [Compound 303, 4-ethoxy-N-(8-fluoro-2-methylimidazo[1,2-a]pyridin-6-yl)-2-(2-methyl-2,7-diazaspiro[3.5]nonan-7-yl)pyrimidine-5-carboxamide]	
500 to 1000	CCOc1nc(N2CC[C@@H](CNC)C2)ncc1C(=O)Nc1cc(F)c2nc(C)cn2c1 [Compound 304, (S)-4-ethoxy-N-(8-fluoro-2-methylimidazo[1,2-a]pyridin-6-yl)-2-(3-((methylamino)methyl)pyrrolidin-1-yl)pyrimidine-5-carboxamide 4-methylbenzenesulfonate]	
500 to 1000	CCOc1nc(N2CC[C@@H](CN(C)C)C2)ncc1C(=O)Nc1cc(F)c2nc(C)cn2c1 [Compound 305, (S)-2-(3-((dimethylamino)methyl)pyrrolidin-1-yl)-4-ethoxy-N-(8-fluoro-2-methylimidazo[1,2-a]pyridin-6-yl)pyrimidine-5-carboxamide formate]	

SMILES	IC50 [1] [nM]	other results
CCOc1nc(N(C)C2CCNCC2)ncc1C(=O)Nc1cc(F)c2nn(C)cc2c1 [Compound 275, 4-ethoxy-N-(7-fluoro-2-methyl-2H-indazol-5-yl)-2-(methyl(piperidin-4-yl)amino) pyrimidine-5-carboxamide formate]	< 500	
CCN(c1ncc(C(=O)Nc2cc(F)c3nn(C)cc3c2)c(OC)n1)C1CCNCC1 [Compound 284, 2-(ethyl(piperidin-4-yl)amino)-N-(7-fluoro-2-methyl-2H-indazol-5-yl)-4-methoxypyrimidine-5-carboxamide formate]	< 500	
